The source of these data is patent publication US9675070B2 (BAYER CROPSCIENCE AG, priority 2013, dated 2017).

The structures appear in SMILES notation.

Holding throughout (assay type): in vivo
Assay [1] relates to engorged adult female cattle ticks (Boophilus microplus). Nature of the assay: Boophilus microplus injection test (BOOPMI Inj). The conditions noted are these: application rate 20 μg/animal; injection into abdomen; assessed after 7 days. Here is the method: Boophilus microplus Injection Test (BOOPMI Inj)
Solvent: dimethyl sulphoxide
To produce a suitable preparation of active compound, 10 mg of active compound are mixed with 0.5 ml of solvent, and the concentrate is diluted with solvent to the desired concentration.
1 μl of the active compound solution is injected into the abdomen of 5 engorged adult female cattle ticks (Boophilus microplus). The animals are transferred into dishes and kept in a climate-controlled room.
The activity is assessed after 7 days by laying of fertile eggs. Eggs whose fertility is not visible from the outside are stored in a climate-controlled cabinet until the larvae hatch after about 42 days. An efficacy of 100% means that none of the ticks has laid any fertile eggs; 0% means that all eggs are fertile.

Assay [2] relates to L1 larvae of the Australian sheep blowfly (Lucilia cuprina). Kind of assay: Lucilia cuprina test (LUCICU). The conditions noted are these: application rate 100 ppm; minced horsemeat; after 2 days. The method, then:
Lucilia cuprina Test (LUCICU) Solvent: dimethyl sulphoxide To produce a suitable preparation of active compound, 10 mg of active compound are mixed with 0.5 ml of dimethyl sulphoxide, and the concentrate is diluted with water to the desired concentration. About 20 L1 larvae of the Australian sheep blowfly (Lucilia cuprina) are transferred into a test vessel containing minced horsemeat and the active compound preparation of the desired concentration. After 2 days, the kill in % is determined. 100% means that all of the larvae have been killed; 0% means that none of the larvae have been killed.

The subject of assay [3] is larvae of the mustard beetle (Phaedon cochleariae). Kind of assay: Phaedon cochleariae spray test (PHAECO). The conditions noted are these: Chinese cabbage leaf discs, after 7 days. Here is the method: Phaedon cochleariae—Spray Test (PHAECO)
(§1) Solvents: 78.0 parts by weight of acetone
(§2) • 1.5 parts by weight of dimethylformamide Emulsifier: alkylaryl polyglycol ether
(§3) To produce a suitable preparation of active compound, 1 part by weight of active compound is dissolved using the stated parts by weight of solvent and made up with water comprising an emulsifier concentration of 1000 ppm until the desired concentration is reached. To produce further test concentrations, the preparation is diluted with emulsifier-containing water.
After 7 days, the efficacy in % is determined. 100% means that all of the beetle larvae have been killed; 0% means that none of the beetle larvae have been killed.

The subject of assay [4] is greenhouse red spider mite (Tetranychus urticae), OP-resistant. Nature of the assay: Tetranychus urticae spray test, OP-resistant (TETRUR). As to conditions: bean leaf discs, after 6 days. The method, then:
Tetranychus urticae—Spray Test, OP-Resistant (TETRUR)
as §1, §2, §3
Discs of bean leaves (Phaseolus vulgaris) which are infested by all stages of the greenhouse red spider mite (Tetranychus urticae) are sprayed with an active compound preparation of the desired concentration.
After 6 days, the efficacy in % is determined. 100% means that all of the spider mites have been killed; 0% means that none of the spider mites have been killed.

Assay [5] relates to adult cat fleas (Ctenocephalides felis). Nature of the assay: Ctenocephalides felis oral test (CTECFE). As to conditions: application rate 100 ppm in citrated cattle blood; after 2 days. Here is the method: Ctenocephalides felis-Oral Test ([…]) Solvent: dimethyl sulphoxide To produce a suitable preparation of active compound, 10 mg of active compound are mixed with 0.5 ml of dimethyl sulphoxide. Dilution with citrated cattle blood gives the desired concentration. About 20 unfed adult cat fleas (Ctenocephalides felis) are placed into a chamber which is closed at the top and bottom with gauze. A metal cylinder whose bottom end is closed with a parafilm is placed onto the chamber. The cylinder contains the blood/active ingredient preparation, which can be imbibed by the fleas through the parafilm membrane. After 2 days, the kill in % is determined. 100% means that all of the fleas have been killed; 0% means that none of the fleas have been killed.

The test system of assay [6] is caterpillars of the armyworm (Spodoptera frugiperda). Kind of assay: Spodoptera frugiperda spray test (SPODFR). As to conditions: maize leaf discs, after 7 days. The method, then:
Spodoptera frugiperda—Spray Test (SPODFR)
as §1, §2, §3
Leaf discs of maize (Zea mays) are sprayed with an active compound preparation of the desired concentration and, after drying, populated with caterpillars of the armyworm (Spodoptera frugiperda).
After 7 days, the efficacy in % is determined. 100% means that all of the caterpillars have been killed; 0% means that none of the caterpillars have been killed.

The subject of assay [7] is adult houseflies (Musca domestica). Nature of the assay: Musca domestica test (MUSCDO). As to conditions: application rate 100 ppm; after 2 days. The method, then:
Musca domestica Test (MUSCDO) Solvents: dimethyl sulphoxide To produce a suitable preparation of active compound, 10 mg of active compound are mixed with 0.5 ml of dimethyl sulphoxide, and the concentrate is diluted with water to the desired concentration. Vessels containing a sponge treated with sugar solution and the active compound preparation of the desired concentration are populated with 10 adult houseflies (Musca domestica). After 2 days, the kill in % is determined. 100% means that all of the flies have been killed; 0% means that none of the flies have been killed.

With `Cn1nc(C(F)(F)C(F)(F)F)c(C(F)(F)F)c1-n1cc(-c2ccc(F)c(CNC(=O)C3CCOC3)c2)cn1` (racemic) [Ic-9], the “efficacy (no laying of fertile eggs)” value in assay [1] was 100%. In addition, the kill in % in assay [2] and in assay [5] was 100% each time. Besides, the efficacy in % amounted to 100% in assay [3] (application rate 100 g/ha) and 90% in assay [4] (application rate 100 g/ha).
Consider `CC(NC(=O)C1CC1)c1cccc(-c2cnn(-c3c(C(F)(F)F)c(C(F)(F)C(F)(F)F)nn3C)c2)c1` (racemic) [Ic-21], for which the efficacy in % in assay [3] (application rate 100 g/ha) is recorded as 100%; in assay [4] (application rate 100 g/ha), 90%.
In assay [3] (application rate 100 g/ha), `Cn1nc(C(F)(F)C(F)(F)F)c(C(F)(F)F)c1-n1cnc(-c2ccc(F)c(CNC(=O)C3CC3)c2)c1` [Ib-7] gave an efficacy in % of 100%.
`Cn1nc(C(F)(F)C(F)(F)F)c(C(F)(F)F)c1-n1cc(-c2ccc(F)c(CNC(=O)CC(F)(F)F)c2)cn1` [Ic-5]: the “efficacy (no laying of fertile eggs)” value in assay [1] was 100%. The efficacy in % in assay [6] (application rate 100 g/ha), in assay [3] (application rate 100 g/ha) and in assay [4] (application rate 100 g/ha) was 100% throughout. Besides, the kill in % in assay [2], in assay [7] and in assay [5] was 100% each time.
As for `Cn1nc(C(F)(F)C(F)(F)F)c(C(F)(F)F)c1-n1cc(-c2ccc(F)c(CNC(=O)C(F)(F)F)c2)cn1` [Ic-6], the “efficacy (no laying of fertile eggs)” value in assay [1] was determined as 100%. The kill in % came out at 100% in assay [2], 80% in assay [7] and 100% in assay [5]. The efficacy in % in assay [3] (application rate 100 g/ha) and in assay [4] (application rate 100 g/ha) was 100% throughout.
For the compound `Cn1nc(C(F)(F)C(F)(F)F)c(C(F)(F)F)c1-n1cc(-c2ccc(F)c(CNC(=O)c3ccccc3)c2)cn1` [Ic-14], the “efficacy (no laying of fertile eggs)” value in assay [1] stood at 100%. In addition, the figures for the efficacy in % in assay [3] (application rate 100 g/ha) and in assay [4] (application rate 100 g/ha) were 100% and 90%, respectively.
In the case of `Cn1nc(C(F)(F)C(F)(F)F)c(C(F)(F)F)c1-n1cc(-c2ccc(F)c(CNC(=O)c3cccnc3)c2)cn1` [Ic-15], in assay [1], the “efficacy (no laying of fertile eggs)” value is reported as 90%. This compound displayed an efficacy in % in assay [4] (application rate 100 g/ha) of 100%.
Consider `Cn1nc(C(F)(F)C(F)(F)F)c(C(F)(F)F)c1-n1cc(-c2ccc(F)c(CNC=O)c2)cn1` [Ic-19], for which the “efficacy (no laying of fertile eggs)” value in assay [1] was determined as 100%. In addition, the figures for the efficacy in % in assay [6] (application rate 500 g/ha), in assay [3] (application rate 500 g/ha) and in assay [4] (application rate 500 g/ha) were 83%, 100% and 90%, respectively. Besides, the kill in % in assay [2] and in assay [5] was 100% each time.
For `Cn1nc(C(F)(F)C(F)(F)F)c(C(F)(F)F)c1-n1cc(-c2ccc(F)c(CNC(=O)c3cncnc3)c2)cn1` [Ic-27], the “efficacy (no laying of fertile eggs)” value in assay [1] came to 100%. In addition, the efficacy in % is listed as 83% in assay [3] (application rate 100 g/ha) and 100% in assay [4] (application rate 100 g/ha). In assay [5], this compound returned a kill in % of 90%.
Take `CC(C)C(=O)NCc1cc(-c2cnn(-c3c(C(F)(F)F)c(C(F)(F)C(F)(F)F)nn3C)c2)ccc1F` [Ic-28]: in assay [1], the “efficacy (no laying of fertile eggs)” value was determined as 100%. Also, the efficacy in % in assay [6] (application rate 100 g/ha) and in assay [3] (application rate 100 g/ha) was 100% each time. In addition, the kill in % is given as 100% in assay [2] and 90% in assay [5].
With `Cn1nc(C(F)(F)C(F)(F)F)c(C(F)(F)F)c1-n1cc(-c2cncc(CNC(=O)C3CC3)c2)cn1` [Ic-29], the figures for the efficacy in % in assay [3] (application rate 100 g/ha) and in assay [4] (application rate 100 g/ha) were 100% and 90%, respectively.
As for `CSC(C)C(=O)NCc1cc(-c2cnn(-c3c(C(F)(F)F)c(C(F)(F)C(F)(F)F)nn3C)c2)ccc1F` (stereo not shown) [Ic-30], the “efficacy (no laying of fertile eggs)” value in assay [1] came to 100%. Further, the kill in % in assay [2] came to 100%; in assay [5], 95%. This compound registered an efficacy in % in assay [4] (application rate 100 g/ha) of 100%.
In turn, `CC(=O)NC(C)c1cccc(-c2cnn(-c3c(C(F)(F)F)c(C(F)(F)C(F)(F)F)nn3C)c2)c1` (stereo not shown) [Ic-31] had an efficacy in % in assay [3] (application rate 100 g/ha) of 100%.
As for `CCC(=O)NCc1cc(-c2ccn(-c3c(C(F)(F)F)c(C(F)(F)C(F)(F)F)nn3C)n2)ccc1F` [Id-2], the “efficacy (no laying of fertile eggs)” value in assay [1] stood at 90%. Also, the efficacy in % in assay [6] (application rate 100 g/ha) and in assay [3] (application rate 100 g/ha) was 100% throughout. The values for the kill in % in assay [2] and in assay [5] were 90% and 80%, respectively.
`CC(=O)NCc1cc(-c2ccn(-c3c(C(F)(F)F)c(C(F)(F)C(F)(F)F)nn3C)n2)ccc1F` [Id-4]: the efficacy in % in assay [3] (application rate 100 g/ha) is listed as 100%.
On the same count and under the same terms, next, `CCC(=O)NCc1cccc(-c2ccn(-c3c(C(F)(F)F)c(C(F)(F)C(F)(F)F)nn3C)n2)c1` [Id-5]: 100%.
For `Cn1nc(C(F)(F)C(F)(F)F)c(C(F)(F)F)c1-n1ccc(-c2ccc(F)c(CNC(=O)C3CC3)c2)n1` [Id-9], the “efficacy (no laying of fertile eggs)” value in assay [1] was determined as 90%. For the same compound, the efficacy in % was 83% in assay [6] (application rate 100 g/ha) and 100% in assay [3] (application rate 100 g/ha).
Consider `CCC(=O)NCc1cc(-c2cnn(-c3c(C(F)(F)F)c(C(F)(F)C(F)(F)F)nn3C)n2)ccc1F` [If-1], for which the “efficacy (no laying of fertile eggs)” value in assay [1] is given as 100%. Also, the efficacy in % in assay [6] (application rate 100 g/ha) and in assay [3] (application rate 100 g/ha) was 100% each time. Also, the kill in % is on record as 100% in assay [2], 80% in assay [7] and 100% in assay [5].
On to `Cn1nc(C(F)(F)C(F)(F)F)c(C(F)(F)F)c1-n1cc(-c2cccc(CNC(=O)C3CC3)c2)nn1` [Ig-2], for which the “efficacy (no laying of fertile eggs)” value in assay [1] is listed as 100%. Also, the kill in % in assay [2], in assay [7] and in assay [5] was 100% in each case. The compound further yielded an efficacy in % in assay [3] (application rate 100 g/ha) of 100%.
With `CCC(=O)NCc1cccc(-c2cn(-c3c(C(F)(F)F)c(C(F)(F)C(F)(F)F)nn3C)nn2)c1` [Ig-4], in assay [1], the “efficacy (no laying of fertile eggs)” value is listed as 100%. Moreover, the kill in % in assay [2], in assay [7] and in assay [5] was 100% in each case. Also, the efficacy in % in assay [3] (application rate 100 g/ha) turned out to be 100%; in assay [4] (application rate 100 g/ha), 90%.
Take `CC(=O)NCc1cccc(-c2cn(-c3c(C(F)(F)F)c(C(F)(F)C(F)(F)F)nn3C)nn2)c1` [Ig-6]: in assay [1], the “efficacy (no laying of fertile eggs)” value came out at 100%. The kill in % in assay [2] and in assay [5] was 100% in each case. For the same compound, in assay [3] (application rate 100 g/ha), the efficacy in % worked out at 100%.
